Data: patent US10722480B2, “Agent for controlling cells constituting cancer microenvironment or inflammatory microenvironment” (The University of Tokyo, priority 2015, dated 2020)

Assays:
[1] = system: B16F10 melanoma cells; assay: WST-1 proliferation assay, B16F10 melanoma cells; type: cell-based; conditions: WST-1, 48 hours
Description: The cytotoxicity of inhibitors was tested by using LDH Cytotoxicity Detection Kit (TaKaRa) according to the manufacturer's instructions. Briefly, tumor cells were cultured in the presence or absence of an agent (disulfiram or 5FU) for 72 hours, and the culture supernatant was then collected and tested for the concentration of lactate dehydrogenase released from damaged cells. For measurement of cell proliferation, cells were incubated in a plate well together with an inhibitor for 48 hours. During the last 30 minutes, WST-1 (Dojindo Laboratories) was added to the culture liquid, and the absorbance of each well was measured at 450 nm versus 650 nm reference using EnVision (PerkinElmer) to detect the formazan level.

[2] = system: LLC tumor; assay: Combined use with anti-PD-1 antibody, LLC tumor-bearing model; type: in vivo, mouse; conditions: DSF in feed from Day 4, anti-PD-1 antibody 0.2 mg i.p. x4
Description: To provide an example of combined use of an anticancer drug and disulfiram (DSF), the effect of combined use of an anti-PD-1 antibody, which is an anticancer drug targeting an immune checkpoint molecule, and DSF was studied using an LLC tumor-bearing model and a B16 tumor-bearing model. The B16 tumor-bearing model was prepared by transplanting 5×10^5 B16 melanoma cells to the right abdomen of each of wild-type C57BL/6 mice. Preparation of the LLC tumor-bearing model was carried out in the same manner as in the above-described section 3. A feed supplemented with DSF was provided in the same manner as in the above-described section 3.
The day of the transplantation of the tumor cells to the mice was defined as Day 0. From Day 4, the mice were fed with the feed supplemented with DSF or a control feed every day during the experimental period. An anti-PD-1 antibody (J43, manufactured by BioXcell) was intraperitoneally administered once at a dose of 0.2 mg on each of Day 5, Day 8, Day 14, and Day 18 (four times in total). To provide a control for the antibody administration, PBS was intraperitoneally administered. The tumor size was measured using a caliper twice a week, and the tumor volume was calculated.

[3] = molecular target: T1, aldehyde dehydrogenase (ALDH) (Rattus norvegicus, UniProt P11884); conditions: Excerpt from Alcohol Clin Exp Res 1996.20.595-; read-out: ALDH inhibition; cited from earlier work
T1 sequence (P11884 20-519): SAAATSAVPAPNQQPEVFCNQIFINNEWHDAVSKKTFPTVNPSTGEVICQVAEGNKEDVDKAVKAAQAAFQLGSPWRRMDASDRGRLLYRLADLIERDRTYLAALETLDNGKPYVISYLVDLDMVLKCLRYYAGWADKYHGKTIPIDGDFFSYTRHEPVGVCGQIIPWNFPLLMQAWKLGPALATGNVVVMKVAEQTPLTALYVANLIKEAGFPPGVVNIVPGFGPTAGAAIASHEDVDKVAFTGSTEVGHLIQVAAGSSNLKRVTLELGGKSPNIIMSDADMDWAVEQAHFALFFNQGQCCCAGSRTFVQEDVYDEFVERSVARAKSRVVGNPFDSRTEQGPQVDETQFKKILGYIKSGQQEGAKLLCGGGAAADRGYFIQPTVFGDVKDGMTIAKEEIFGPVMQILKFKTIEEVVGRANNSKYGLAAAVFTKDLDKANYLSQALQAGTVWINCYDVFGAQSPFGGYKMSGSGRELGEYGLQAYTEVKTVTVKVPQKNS

[4] = system: LLC (Lewis lung cancer) cells; assay: Subcutaneous tumor growth model (LLC); type: in vivo, mouse; conditions: 0.8 mg/g in feed, oral, Day 4 to Day 11, vs control group
Description: For evaluation of the subcutaneous tumor growth, LLC (Lewis lung cancer) cells (5×10^5) were suspended in 50 μL of PBS, and subcutaneously administered to the right abdomen of each mouse. The tumor size was measured using a caliper twice a week. The tumor volume was calculated according to the following equation. Tumor volume=(tumor shorter diameter)^2×tumor longer diameter/2 In order to investigate the antitumor effect in the subcutaneous tumor growth model, disulfiram was added in an amount of 0.8 mg/g to CE-2 powder feed (CLEA Japan, Inc.) supplemented with 5% sucrose (Wako), and the mice were fed therewith every day during the period from Day 4 to Day 11 post tumor inoculation. The control group was fed with a feed supplemented with the same amount of sucrose.

[5] = molecular target: T2, FROUNT protein (Homo sapiens, UniProt Q9BW27); assay: NMR analysis of binding to FROUNT fragment
T2 construct: A fragment consisting of the region of the 500th to 656th amino acids of FROUNT protein; made in house
T2 sequence (Q9BW27 500-656): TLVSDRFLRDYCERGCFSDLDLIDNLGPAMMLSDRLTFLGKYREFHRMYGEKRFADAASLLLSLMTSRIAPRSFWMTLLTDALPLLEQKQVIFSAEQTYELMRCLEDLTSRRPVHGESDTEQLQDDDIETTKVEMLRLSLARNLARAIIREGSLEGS
Description: A fragment consisting of the region of the 500th to 656th amino acids of FROUNT protein and a CCR2 pro-C region fragment of 16 residues (SEQ ID NO:3) were prepared, and the binding state between the two fragments and the binding state between FROUNT protein and disulfiram were investigated by NMR analysis.

[6] = system: B16F10 melanoma cells; assay: Lung metastasis model (B16F10); type: in vivo, mouse; conditions: B16F10 via tail vein, Day 9 post tumor administration
Description: To provide a lung metastasis model, 1×10^6 B16F10 melanoma cells were suspended in 200 μL of PBS, and administered from the tail vein of each of wild-type C57BL/6 mice. Administration of the inhibitor was carried out one day before, 30 minutes before, and one day after the tumor administration. To provide a control, DMSO and a pyrimidine fluoride anticancer drug 5-FU were administered. The mice were euthanized on Day 9 post tumor administration, and PBS was perfused from the left ventricle, followed by isolation of lungs. Visible lung metastatic lesions in the left lobe were counted.

[7] = molecular target: p53-MDM2 interaction (Homo sapiens, UniProt Q00987); assay: HTRF binding inhibition assay, p53-MDM2 control interaction
Source text: By the same HTRF assay as described above, the abilities of disulfiram to inhibit the FROUNT-CCR2 interaction or the FROUNT-CCR5 interaction were investigated. As the CCR5 pro-C peptide, the 16 residues […] (SEQ ID NO:4) in the C-terminal region of CCR5 was used. As a control, the p53-MDM2 interaction (which is inhibited by an MDM-2-specific inhibitor Nutlin), which is also a helix peptide-protein interaction like the interaction between FROUNT and CCR2 or CCR5 but is not related thereto, was used.

Sequence of p53-MDM2 interaction (Q00987 whole entry): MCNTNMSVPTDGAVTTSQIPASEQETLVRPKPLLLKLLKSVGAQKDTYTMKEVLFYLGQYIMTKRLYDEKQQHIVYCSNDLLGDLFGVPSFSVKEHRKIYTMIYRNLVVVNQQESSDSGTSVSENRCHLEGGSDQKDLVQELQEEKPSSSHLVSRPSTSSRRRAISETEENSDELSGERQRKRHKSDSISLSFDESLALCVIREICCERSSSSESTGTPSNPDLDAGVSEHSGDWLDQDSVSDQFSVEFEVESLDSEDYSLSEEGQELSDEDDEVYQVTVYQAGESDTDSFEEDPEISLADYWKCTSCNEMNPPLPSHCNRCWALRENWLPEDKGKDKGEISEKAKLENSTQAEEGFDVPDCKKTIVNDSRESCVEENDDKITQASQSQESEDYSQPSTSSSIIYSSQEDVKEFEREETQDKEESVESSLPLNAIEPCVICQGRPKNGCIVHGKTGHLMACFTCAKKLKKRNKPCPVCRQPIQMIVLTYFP

In the case of `CCN(CC)C(=S)SSC(=S)N(CC)CC` [DSF, disulfiram], the “growth-inhibiting action on B16F10 melanoma cells” value [1] is listed as “did not show any action”, the “hyperplasia of cancer cells (tumor volume)” value [2] is listed as “inhibited” and the IC50 [3] is listed as 7.4 µM. For the same molecule, the tumor volume [4] was “significantly smaller”, the “interaction with FROUNT / binding site on FROUNT” value [5] was “directly interact” and the “formation of lung metastatic lesions” value ([6]; listed as Disulfiram) was “significantly reduced”. For the same molecule, the “formation of lung metastatic lesions” value ([6]; listed as disulfiram) was “effectively reduced”, the IC50 ([7]; p53-MDM2 control interaction) was over 1 µM and the “inhibition of p53-MDM2 interaction” value ([7]; result in words) was “did not inhibit”.
